Assay results as given in patent publication US8440612B2, “Controlling giardiosis” (Bayer Intellectual Property GmbH, priority 2008, dated 2013).
“And” between values parts separate entries of the source, which are not always exact repeats. Equal values may be shown once.

What was measured:
Giardia duodenalis [1] = experiment: Giardia cyst excretion in infected Beagle puppies, single oral dose (Biological Example 1); type: in vivo
Description: Beagle puppies aged 10-11 weeks which had 11 days to settle in the animal centre before being infected were infected orally with 50 000 Giardia duodenalis cysts. The cysts for the infection were obtained with the aid of a sucrose gradient from the faeces of dogs which excreted Giardia cysts and stored at 4 degrees centigrade in Bacto-Casitone medium for no longer than 2 weeks. From day 10 after the infection, the puppies were kept in individual cages in order to collect the daily total faeces for each individual. The quantitative determination of the cyst excretion was performed in the 4 days prior to treatment (day −3 to 0), and the puppies were divided randomly into two groups, taking into consideration the cyst excretion. […] The quantitative determination of the cyst excretion was continued from day 1 to day 8 after the treatment.
Results: The activity was calculated using the following formula:
(§1) Method: The quantitative determination of the cyst excretion was performed using a modified version of Hewlett (18): 4 g faeces were dissolved in 100 ml of water, sieved and allowed to sediment. The sediment was applied to a 1 M sucrose gradient (specific gravity 1.13), and the cysts, which were concentrated at the sucrose/water boundary layer after the centrifugation were pipetted off. After a wash step followed by centrifugation, the cysts in the pellet were counted. To this end, an aliquot of the pellet was counted under the microscope, and the number of cysts per g faeces was calculated.

Giardia duodenalis [2] = experiment: Giardia cyst excretion in infected Beagle puppies, oral dose on three successive days (Biological Example 2); type: in vivo
Description: as §1
Beagle puppies aged 11-15 weeks which had at least 2 weeks to settle in the animal centre before being infected were infected orally with 50 000 Giardia duodenalis cysts before the beginning of the study. The cysts for the infection were obtained with the aid of a sucrose gradient from the faeces of dogs which excreted Giardia cysts and stored at 4 degrees centigrade in Bacto-Casitone medium for no longer than 2 weeks. 18 puppies which excreted Giardia cysts were included in the study and kept in individual cages in order to collect the daily total faeces. The quantitative determination of the cyst excretion was performed as an […], with the modification that the aliquot of the pellet was counted under the microscope with the aid of a Fuchs-Rosenthal hematocytometer. The quantitative determination of the cyst excretion was performed for 4 days before the treatment (day −3 to 0), and the puppies were divided randomly into three groups, taking into consideration the cyst excretion. […] The 6 dogs of the control group remained untreated. The quantitative determination of the cyst excretion was continued from day 1 to day 8 after the treatment.

SMILES: CC1CS(=O)(=O)CCN1N=Cc1ccc([N+](=O)[O-])o1 (stereo not shown) [nifurtimox]
- Activity (Giardia duodenalis [1]; calculated activity on cyst excretion versus infected untreated control, day 1 to 8, single oral dose 50 mg/kg, 50 mg/kg): 90.4%
- Σ Giardia cyst excretion D1 (Giardia duodenalis [1]; group line Σ (7 dogs), day 1 after treatment, 50 mg/kg oral on day D0): 1516 cysts per g faeces
- Σ Giardia cyst excretion D2 (Giardia duodenalis [1]; group line Σ (7 dogs), day 2 after treatment, 50 mg/kg oral on day D0): 26 cysts per g faeces
- Σ Giardia cyst excretion D3 (Giardia duodenalis [1]; group line Σ (7 dogs), day 3 after treatment, 50 mg/kg oral on day D0): 32 cysts per g faeces
- Σ Giardia cyst excretion D4 (Giardia duodenalis [1]; group line Σ (7 dogs), day 4 after treatment, 50 mg/kg oral on day D0): 473 cysts per g faeces
- Σ Giardia cyst excretion D5 (Giardia duodenalis [1]; group line Σ (7 dogs), day 5 after treatment, 50 mg/kg oral on day D0): 629 cysts per g faeces
- Σ Giardia cyst excretion D6 (Giardia duodenalis [1]; group line Σ (7 dogs), day 6 after treatment, 50 mg/kg oral on day D0): 2523 cysts per g faeces
- Σ Giardia cyst excretion D7 (Giardia duodenalis [1]; group line Σ (7 dogs), day 7 after treatment, 50 mg/kg oral on day D0): 2403 cysts per g faeces
- Σ Giardia cyst excretion D8 (Giardia duodenalis [1]; group line Σ (7 dogs), day 8 after treatment, 50 mg/kg oral on day D0): 3127 cysts per g faeces
- Σ Giardia cyst excretion D0 (Giardia duodenalis [1]; group line Σ (7 dogs), day of treatment, 50 mg/kg oral on day D0): 8996 cysts per g faeces
- Σ Giardia cyst excretion D−1 (Giardia duodenalis [1]; group line Σ (7 dogs), day −1, before treatment, 50 mg/kg oral on day D0): 39966 cysts per g faeces
- Σ Giardia cyst excretion D−2 (Giardia duodenalis [1]; group line Σ (7 dogs), day −2, before treatment, 50 mg/kg oral on day D0): 38482 cysts per g faeces
- Σ Giardia cyst excretion D−3 (Giardia duodenalis [1]; group line Σ (7 dogs), day −3, before treatment, 50 mg/kg oral on day D0): 9762 cysts per g faeces
- Σ Giardia cyst excretion Day 1 to 8 (Giardia duodenalis [1]; group, after treatment, 50 mg/kg oral once on day 0): 1341 cysts per g faeces
- Σ Giardia cyst excretion Day −3 to 0 (Giardia duodenalis [1]; group, before treatment, 50 mg/kg oral once on day 0): 24302 cysts per g faeces
- Giardia cyst excretion D1 (Giardia duodenalis [1]; individual dogs, day 1 after treatment, 50 mg/kg oral on day D0, 50 mg/kg): 504 cysts per g faeces and 4928 cysts per g faeces and 152 cysts per g faeces and 0 cysts per g faeces (2×) and 2636 cysts per g faeces and 2391 cysts per g faeces
- Giardia cyst excretion D2 (Giardia duodenalis [1]; individual dogs, day 2 after treatment, 50 mg/kg oral on day D0, 50 mg/kg): 0 cysts per g faeces (6×) and 180 cysts per g faeces
- Giardia cyst excretion D3 (Giardia duodenalis [1]; individual dogs, day 3 after treatment, 50 mg/kg oral on day D0, 50 mg/kg): 0 cysts per g faeces (6×) and 224 cysts per g faeces
- Giardia cyst excretion D4 (Giardia duodenalis [1]; individual dogs, day 4 after treatment, 50 mg/kg oral on day D0, 50 mg/kg): 590 cysts per g faeces and 0 cysts per g faeces (2×) and 652 cysts per g faeces and 424 cysts per g faeces and 1451 cysts per g faeces and 193 cysts per g faeces
- Giardia cyst excretion D5 (Giardia duodenalis [1]; individual dogs, day 5 after treatment, 50 mg/kg oral on day D0, 50 mg/kg): 1700 cysts per g faeces and 1094 cysts per g faeces and 0 cysts per g faeces (2×) and 137 cysts per g faeces and 1318 cysts per g faeces and 153 cysts per g faeces
- Giardia cyst excretion D6 (Giardia duodenalis [1]; individual dogs, day 6 after treatment, 50 mg/kg oral on day D0, 50 mg/kg): 3693 cysts per g faeces and 2000 cysts per g faeces and 1201 cysts per g faeces and 353 cysts per g faeces and 0 cysts per g faeces and 4102 cysts per g faeces and 6315 cysts per g faeces
- Giardia cyst excretion D7 (Giardia duodenalis [1]; individual dogs, day 7 after treatment, 50 mg/kg oral on day D0, 50 mg/kg): 8881 cysts per g faeces and 431 cysts per g faeces and 1873 cysts per g faeces and 608 cysts per g faeces and 191 cysts per g faeces and 4615 cysts per g faeces and 223 cysts per g faeces
- Giardia cyst excretion D8 (Giardia duodenalis [1]; individual dogs, day 8 after treatment, 50 mg/kg oral on day D0, 50 mg/kg): 3294 cysts per g faeces and 517 cysts per g faeces and 14181 cysts per g faeces and 0 cysts per g faeces and 1621 cysts per g faeces and 1768 cysts per g faeces and 508 cysts per g faeces
- Giardia cyst excretion D0 (Giardia duodenalis [1]; individual dogs, day of treatment, 50 mg/kg oral on day D0, 50 mg/kg): 4397 cysts per g faeces and 8456 cysts per g faeces and 0 cysts per g faeces and 375 cysts per g faeces and 19681 cysts per g faeces and 16419 cysts per g faeces and 13644 cysts per g faeces
- Giardia cyst excretion D−1 (Giardia duodenalis [1]; individual dogs, day −1, before treatment, 50 mg/kg oral on day D0, 50 mg/kg): 1306 cysts per g faeces and 14238 cysts per g faeces and 2264 cysts per g faeces and 788 cysts per g faeces and 189275 cysts per g faeces and 45725 cysts per g faeces and 26163 cysts per g faeces
- Giardia cyst excretion D−2 (Giardia duodenalis [1]; individual dogs, day −2, before treatment, 50 mg/kg oral on day D0, 50 mg/kg): 907 cysts per g faeces and 923 cysts per g faeces and 5897 cysts per g faeces and 905 cysts per g faeces and 186750 cysts per g faeces and 45672 cysts per g faeces and 28322 cysts per g faeces
- Activity (Giardia duodenalis [2]; calculated activity on cyst excretion versus infected untreated control, day 3 to 8, 50 mg/kg oral on days 0, 1 and 2, 50 mg/kg): 98.6%
- Σ Giardia cyst excretion D0 (Giardia duodenalis [2]; group line Σ (6 dogs), D0, day of treatment, 50 mg/kg oral on days D0, D1 and D2): 61098 cysts per g faeces
- Σ Giardia cyst excretion D1 (Giardia duodenalis [2]; group line Σ (6 dogs), D1, day of treatment, 50 mg/kg oral on days D0, D1 and D2): 872 cysts per g faeces
- Σ Giardia cyst excretion D2 (Giardia duodenalis [2]; group line Σ (6 dogs), D2, day of treatment, 50 mg/kg oral on days D0, D1 and D2): 211 cysts per g faeces
- Σ Giardia cyst excretion D3 (Giardia duodenalis [2]; group line Σ (6 dogs), D3, after the treatment, 50 mg/kg oral on days D0, D1 and D2): 0 cysts per g faeces
- Σ Giardia cyst excretion D4 (Giardia duodenalis [2]; group line Σ (6 dogs), D4, after the treatment, 50 mg/kg oral on days D0, D1 and D2): 135 cysts per g faeces
- Σ Giardia cyst excretion D5 (Giardia duodenalis [2]; group line Σ (6 dogs), D5, after the treatment, 50 mg/kg oral on days D0, D1 and D2): 638 cysts per g faeces
- Σ Giardia cyst excretion D6 (Giardia duodenalis [2]; group line Σ (6 dogs), D6, after the treatment, 50 mg/kg oral on days D0, D1 and D2): 339 cysts per g faeces
- Σ Giardia cyst excretion D7 (Giardia duodenalis [2]; group line Σ (6 dogs), D7, after the treatment, 50 mg/kg oral on days D0, D1 and D2): 54 cysts per g faeces
- Σ Giardia cyst excretion D8 (Giardia duodenalis [2]; group line Σ (6 dogs), D8, after the treatment, 50 mg/kg oral on days D0, D1 and D2): 399 cysts per g faeces
- Σ Giardia cyst excretion D−1 (Giardia duodenalis [2]; group line Σ (6 dogs), day −1, before treatment, 50 mg/kg oral on days D0, D1 and D2): 37547 cysts per g faeces
- Σ Giardia cyst excretion D−2 (Giardia duodenalis [2]; group line Σ (6 dogs), day −2, before treatment, 50 mg/kg oral on days D0, D1 and D2): 28220 cysts per g faeces
- Σ Giardia cyst excretion D−3 (Giardia duodenalis [2]; group line Σ (6 dogs), day −3, before treatment, 50 mg/kg oral on days D0, D1 and D2): 49751 cysts per g faeces
- Σ Giardia cyst excretion Day 3 to 8 (Giardia duodenalis [2]; group, after treatment, 50 mg/kg oral on days 0, 1 and 2): 261 cysts per g faeces
- Σ Giardia cyst excretion Day: −3 to 0 (Giardia duodenalis [2]; group, before treatment, 50 mg/kg oral on days 0, 1 and 2): 44154 cysts per g faeces
- Giardia cyst excretion D0 (Giardia duodenalis [2]; individual dogs, D0, day of treatment, 50 mg/kg oral on days D0, D1 and D2, 50 mg/kg): 60420 cysts per g faeces and 675 cysts per g faeces and 89880 cysts per g faeces and 86 cysts per g faeces and 103442 cysts per g faeces and 112084 cysts per g faeces
- Giardia cyst excretion D1 (Giardia duodenalis [2]; individual dogs, D1, day of treatment, 50 mg/kg oral on days D0, D1 and D2, 50 mg/kg): 809 cysts per g faeces and 187 cysts per g faeces and 974 cysts per g faeces and 0 cysts per g faeces and 1261 cysts per g faeces and 2000 cysts per g faeces
- Giardia cyst excretion D2 (Giardia duodenalis [2]; individual dogs, D2, day of treatment, 50 mg/kg oral on days D0, D1 and D2, 50 mg/kg): 741 cysts per g faeces and 0 cysts per g faeces (4×) and 527 cysts per g faeces
- Giardia cyst excretion D3 (Giardia duodenalis [2]; individual dogs, D3, after the treatment, 50 mg/kg oral on days D0, D1 and D2): 0 cysts per g faeces
- Giardia cyst excretion D4 (Giardia duodenalis [2]; individual dogs, D4, after the treatment, 50 mg/kg oral on days D0, D1 and D2, 50 mg/kg): 0 cysts per g faeces (4×) and 185 cysts per g faeces and 622 cysts per g faeces
- Giardia cyst excretion D5 (Giardia duodenalis [2]; individual dogs, D5, after the treatment, 50 mg/kg oral on days D0, D1 and D2, 50 mg/kg): 229 cysts per g faeces and 0 cysts per g faeces (3×) and 2299 cysts per g faeces and 1299 cysts per g faeces
- Giardia cyst excretion D6 (Giardia duodenalis [2]; individual dogs, D6, after the treatment, 50 mg/kg oral on days D0, D1 and D2, 50 mg/kg): 0 cysts per g faeces (3×) and 98 cysts per g faeces and 1842 cysts per g faeces and 93 cysts per g faeces
- Giardia cyst excretion D7 (Giardia duodenalis [2]; individual dogs, D7, after the treatment, 50 mg/kg oral on days D0, D1 and D2, 50 mg/kg): 0 cysts per g faeces (4×) and 87 cysts per g faeces and 237 cysts per g faeces
- Giardia cyst excretion D8 (Giardia duodenalis [2]; individual dogs, D8, after the treatment, 50 mg/kg oral on days D0, D1 and D2, 50 mg/kg): 517 cysts per g faeces and 0 cysts per g faeces (3×) and 975 cysts per g faeces and 903 cysts per g faeces
- Giardia cyst excretion D−1 (Giardia duodenalis [2]; individual dogs, day −1, before treatment, 50 mg/kg oral on days D0, D1 and D2, 50 mg/kg): 25515 cysts per g faeces and 3472 cysts per g faeces and 37203 cysts per g faeces and 8528 cysts per g faeces and 91293 cysts per g faeces and 59273 cysts per g faeces
- Giardia cyst excretion D−2 (Giardia duodenalis [2]; individual dogs, day −2, before treatment, 50 mg/kg oral on days D0, D1 and D2, 50 mg/kg): 10685 cysts per g faeces and 8278 cysts per g faeces and 1618 cysts per g faeces and 133 cysts per g faeces and 79689 cysts per g faeces and 68914 cysts per g faeces
